The test system of one assay is HIF1α. Description: HIF1α degradation in MIO‐M1 cells under hypoxia (western blotting). The assay is classed as cell-based, human. The settings on record: MIO‐M1 cells, 6 h under hypoxia. For orientation: Immunoblotting shows a protein as a band on a membrane.
Another assay relates to calpain. Kind of assay: Calpain activity assay in MIO‐M1 cells. The assay is classed as cell-based, human. The following applies: 3 µM gamitrinib or 0.5 µM MitoQ, 6 h under hypoxia, fluorogenic calpain substrate, n = 4. As for the experimental part:
Figure 5 TRAP1 inhibition induces mPTP opening, mitochondrial calcium discharge, and calpain‐1 activation. A) Visualization of cytoplasmic calcium. Fluo‐4 AM‐labeled MIO‐M1 cells were incubated with the TRAP1 inhibitors gamitrinib and MitoQ^[ [32], [41] ^] for 6 h or thapsigargin for 30 min under hypoxia, and analyzed by confocal microscopy. Scale bars, 10 µm and 2 µm (inset). […] MIO‐M1 cells were treated with a TRAP1 inhibitor, 3 µM gamitrinib or 0.5 µM MitoQ, for 6 h under hypoxia (n = 4). Enzyme activity was measured using a fluorogenic calpain substrate as described in the Experimental Section. C) Restored HIF1α expression upon CypD inhibition. MIO‐M1 cells were incubated with control or CypD‐targeting siRNAs, treated with the TRAP1 inhibitor MitoQ for 6 h under hypoxia, harvested, and analyzed by western blotting. Black and red arrows indicate pro and autolyzed forms of calpain‐1, respectively. […] MIO‐M1 cells were incubated with TRAP1‐targeting siRNAs for 48 h, exposed to hypoxia for 6 h, harvested, and analyzed by qPCR (n = 4). […] Cells were then analyzed by flow cytometry to detect cytoplasmic calcium. […] MIO‐M1 cells were incubated with TRAP1 inhibitors, 3 µM gamitrinib, and 0.5 µM MitoQ, and a cell‐permeable calcium chelator, BAPTA (10 µM), for 6 h as indicated under hypoxia and analyzed by western blotting. […] Data information: Data are expressed as mean ± SEM. […]

In general, IC50 refers to the concentration needed to halve the response being measured. In the assay on HIF1α (Homo sapiens, western blot band intensity, n = 4, mean ± SEM), `COC1=C(OC)C(=O)C(CCCCCCCCCC[P+](c2ccccc2)(c2ccccc2)c2ccccc2)=C(C)C1=O` [MitoQ, mitoquinone] showed an IC50 of 77 ± 16 nM. Also, the “potency in inducing the degradation of HIF1α relative to gamitrinib” value with HIF1α is listed as “more than 10 fold”. Also, the calpain enzyme activity entry with calpain is “Calpain activation”.

Values taken from PMC10787068, “Targeting the Mitochondrial Chaperone TRAP1 Alleviates Vascular Pathologies in Ischemic Retinopathy” (Advanced Science, 2023).
